According to the NIST ThermoML archive (doi:10.1021/acs.jced.9b00607):
Numbers after ± are expanded uncertainties.

Assay: wn = mass fraction of the nth substance listed
Details: 102 kPa, Liquid; for viscosity: Falling or rolling sphere viscometry; for mass density: Vibrating tube method

CN(CCO)CCO [N-methyldiethanolamine] + OCCO
Details	mass density [kg/m3]	viscosity [mPa·s]
283.15 K, w1 = 0.3	1101.8 ± 0.3	64.36 ± 4.2
283.15 K, w1 = 0.4	1095.1 ± 0.3	80.69 ± 4.3
283.15 K, w1 = 0.5	1088.1 ± 0.4	99.66 ± 4.7
283.15 K, w1 = 0.7	1073.3 ± 0.5	–
283.15 K, w1 = 0.8	1065.4 ± 0.7	164.27 ± 7.6
283.15 K, w1 = 0.9	1057.2 ± 0.8	181.33 ± 8.6
283.15 K, w1 = 1	1048 ± 0.3	198.15 ± 9.4
298.15 K, w1 = 0.3	1090.9 ± 0.3	30.43 ± 1.1
298.15 K, w1 = 0.4	1084.3 ± 0.3	36.57 ± 1.1
298.15 K, w1 = 0.5	1077.2 ± 0.4	43.55 ± 1.2
298.15 K, w1 = 0.7	1062.1 ± 0.5	58.07 ± 2.7
298.15 K, w1 = 0.8	1054 ± 0.7	66.59 ± 2.7
298.15 K, w1 = 0.9	1045.6 ± 0.8	69.21 ± 2.8
298.15 K, w1 = 1	1036.8 ± 0.3	74.87 ± 1.5
313.15 K, w1 = 0.3	1079.9 ± 0.2	15.89 ± 1.1
313.15 K, w1 = 0.4	1073.2 ± 0.3	18.52 ± 1.1
313.15 K, w1 = 0.5	1066 ± 0.3	21.58 ± 1.1
313.15 K, w1 = 0.7	1050.8 ± 0.5	27.72 ± 1.1
313.15 K, w1 = 0.8	1042.6 ± 0.7	30.49 ± 1.1
313.15 K, w1 = 0.9	1034.1 ± 0.8	33.05 ± 1.1
313.15 K, w1 = 1	1025.3 ± 0.3	35.05 ± 1.1
323.15 K, w1 = 0.3	1072.5 ± 0.2	10.8 ± 0.35
323.15 K, w1 = 0.4	1065.7 ± 0.3	12.43 ± 0.36
323.15 K, w1 = 0.5	1058.5 ± 0.3	14.2 ± 0.36
323.15 K, w1 = 0.7	1043.1 ± 0.5	17.75 ± 0.39
323.15 K, w1 = 0.8	1034.9 ± 0.7	19.48 ± 0.4
323.15 K, w1 = 0.9	1026.4 ± 0.8	20.91 ± 0.4
323.15 K, w1 = 1	1017.7 ± 0.2	21.96 ± 0.43
333.15 K, w1 = 0.3	1065.1 ± 0.2	7.82 ± 0.47
333.15 K, w1 = 0.4	1058.1 ± 0.3	8.82 ± 0.48
333.15 K, w1 = 0.5	1050.9 ± 0.3	9.94 ± 0.48
333.15 K, w1 = 0.7	1035.4 ± 0.5	12.17 ± 0.49
333.15 K, w1 = 0.8	1027.2 ± 0.7	13.26 ± 0.49
333.15 K, w1 = 0.9	1018.7 ± 0.8	14.12 ± 0.49
333.15 K, w1 = 1	1010 ± 0.2	14.83 ± 0.49
343.15 K, w1 = 0.3	1057.4 ± 0.2	5.75 ± 0.46
343.15 K, w1 = 0.4	1050.5 ± 0.3	6.45 ± 0.46
343.15 K, w1 = 0.5	1043.1 ± 0.3	7.17 ± 0.46
343.15 K, w1 = 0.7	1027.5 ± 0.5	8.61 ± 0.47
343.15 K, w1 = 0.8	1019.3 ± 0.7	9.26 ± 0.47
343.15 K, w1 = 0.9	1010.9 ± 0.8	9.81 ± 0.47
343.15 K, w1 = 1	1002.2 ± 0.2	10.29 ± 0.54
353.15 K, w1 = 0.3	1049.7 ± 0.2	4.44 ± 0.31
353.15 K, w1 = 0.4	1042.7 ± 0.3	4.89 ± 0.31
353.15 K, w1 = 0.5	1035.3 ± 0.3	5.36 ± 0.31
353.15 K, w1 = 0.7	1019.7 ± 0.5	6.32 ± 0.32
353.15 K, w1 = 0.8	1011.5 ± 0.7	6.76 ± 0.32
353.15 K, w1 = 0.9	1003 ± 0.8	7.13 ± 0.32
353.15 K, w1 = 1	994.5 ± 0.2	7.4 ± 0.32
